Measured values from patent publication US10144715B2, “Piperazine derivatives as liver X receptor modulators” (priority 2014, dated 2018).
Read-outs that look alike come from different tables or passages of the source.

Tests used:
[1] = target: Gal4 DNA binding domain fused to the LBD of LXRβ in HEK293 cells (Homo sapiens (Human), UniProt P55055); test: cell-based
LXR β LBD protein = LXR β LBD protein (Homo sapiens (Human), UniProt P55055); test: biochemical; format: binding
[2] = target: Gal4 DNA binding domain fused to the LBD of LXRα in HEK293 cells (Homo sapiens (Human), UniProt Q13133); test: LXR luciferase transcriptional reporter gene assay, agonist mode, LXRα; format: cell-based
LXR α LBD protein = LXR α LBD protein (Homo sapiens (Human), UniProt Q13133); test: LXR α radioligand binding assay (SPA, competition with [3H]TO901317); settings: read-out: LXRα Binding Ki
[3] = agonist mode, read-out: Cell LXRα EC50
[4] = Biological Test Example 2, agonist mode
[5] = Biological Test Example 1, read-out: LXRβ Binding Ki
[6] = Biological Test Example 2, agonist mode, read-out: Cell LXRβ EC50

LXR α LBD protein, sequence (Q13133 209-447): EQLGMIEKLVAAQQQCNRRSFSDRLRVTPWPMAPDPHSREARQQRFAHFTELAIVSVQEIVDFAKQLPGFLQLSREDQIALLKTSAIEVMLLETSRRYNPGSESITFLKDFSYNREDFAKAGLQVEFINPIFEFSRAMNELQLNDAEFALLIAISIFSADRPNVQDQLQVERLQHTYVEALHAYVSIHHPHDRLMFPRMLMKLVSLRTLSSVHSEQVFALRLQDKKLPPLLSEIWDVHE
Gal4 DNA binding domain fused to the LBD of LXRα in HEK293 cells, sequence (Q13133 209-447): as above
Gal4 DNA binding domain fused to the LBD of LXRβ in HEK293 cells, sequence (P55055 222-460 limits assumed): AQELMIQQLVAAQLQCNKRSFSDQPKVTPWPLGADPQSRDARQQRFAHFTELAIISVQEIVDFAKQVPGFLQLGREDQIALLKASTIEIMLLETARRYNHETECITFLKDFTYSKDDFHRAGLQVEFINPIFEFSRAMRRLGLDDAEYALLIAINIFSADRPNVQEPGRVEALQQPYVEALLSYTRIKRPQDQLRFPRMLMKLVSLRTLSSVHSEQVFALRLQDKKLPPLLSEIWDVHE
LXR β LBD protein, sequence (P55055 222-460 limits assumed): as above

Row | EC50 [1] | Cell LXRβ efficacy ([1]; agonist mode) | Ki (LXR β LBD protein; read-out: LXRβ Binding Ki) | SMILES | Cell LXRα efficacy [2] | also measured
1 | 467 nM | 467 (76) % | 95 nM | CC(C)[C@@H]1CN(c2ccc(CO)c(S(C)(=O)=O)c2)CCN1c1nc(C(F)(F)F)c(CO)o1 [11-16, (R)-(2-(4-(4-(hydroxymethyl)-3-(methylsulfonyl)phenyl)-2-isopropylpiperazin-1-yl)-4-(trifluoromethyl)oxazol-5-yl)methanol] |  | 
2 | > 20000 nM |  | 330 nM | CC(C)[C@@H]1CN(c2ccc(F)c(S(C)(=O)=O)c2)CCN1c1ncc(C(=O)NC2CN(C(=O)OC(C)(C)C)C2)c(C(F)(F)F)n1 [17-20, tert-butyl (R)-3-(2-(4-(4-fluoro-3-(methylsulfonyl)phenyl)-2-isopropylpiperazin-1-yl)-4-(trifluoromethyl)pyrimidine-5-carboxamido)azetidine-1-carboxylate] |  | EC50 [2, 3]: > 20000 nM
3 | > 20000 nM |  | 111 nM | CC(C)[C@@H]1CN(c2ccc(F)c(S(C)(=O)=O)c2)CCN1c1ncc(C(=O)N2CC(NC(=O)OC(C)(C)C)C2)c(C(F)(F)F)n1 [17-21, tert-butyl (R)-(1-(2-(4-(4-fluoro-3-(methylsulfonyl)phenyl)-2-isopropylpiperazin-1-yl)-4-(trifluoromethyl)pyrimidine-5-carbonyl)azetidin-3-yl)carbamate] |  | EC50 [2, 3]: > 20000 nM
4 | 706 nM | 706 (43) % | 73 nM | CC(C)[C@@H]1CN(c2cccc(S(C)(=O)=O)c2)CCN1c1ccc(C(C)(F)F)cn1 [20-2, (R)-1-(5-(1,1-difluoroethyl)pyridin-2-yl)-2-isopropyl-4-(3-(methylsulfonyl)phenyl)piperazine] |  | 
5 | 443 nM | 443 (48) % | 52 nM | CC(C)[C@@H]1CN(c2ccc(F)c(S(C)(=O)=O)c2)CCN1c1ccc(C(C)(O)C(F)(F)F)cn1 (stereo partly drawn) [20-3, 1,1,1-trifluoro-2-(6-((R)-4-(4-fluoro-3-(methylsulfonyl)phenyl)-2-isopropylpiperazin-1-yl)pyridin-3-yl)propan-2-ol] |  | 
6 | 2480 nM | 2479 (33) % |  | CC(C)[C@@H]1CN(c2ccc(F)c(S(C)(=O)=O)c2)CCN1c1nccc(CO)n1 [11-15, (R)-(2-(4-(4-fluoro-3-(methylsulfonyl)phenyl)-2-isopropylpiperazin-1-yl)pyrimidin-4-yl)methanol] |  | Ki (LXR β LBD protein): 930 nM
7 | 292 nM | 292 (89) % | 53 nM | CC(C)[C@@H]1CN(c2ccc(CO)c(S(C)(=O)=O)c2)CCN1c1nc(C(F)(F)F)c(CO)s1 [11-17, (R)-(2-(4-(4-(hydroxymethyl)-3-(methylsulfonyl)phenyl)-2-isopropylpiperazin-1-yl)-4-(trifluoromethyl)thiazol-5-yl)methanol] |  | 
8 | 2080 nM |  |  | CC1(C)CCC(O)(CN2CCN(c3cccc(S(C)(=O)=O)c3)C[C@H]2c2ccccc2)CC1 [53-2, (R)-4,4-dimethyl-1-((4-(3-(methylsulfonyl)phenyl)-2-phenylpiperazin-1-yl)methyl)cyclohexan-1-ol] |  | Cell LXRβ efficacy [1, 4]: 2082 (56) %; Ki (LXR β LBD protein; [5]): 609 nM

The remaining lines, values behind:

Row | SMILES | EC50 [1] | Cell LXRβ efficacy ([1]; agonist mode) | Ki (LXR β LBD protein; read-out: LXRβ Binding Ki) | Cell LXRα efficacy [2] | also measured
9 | CC(C)[C@H]1CN(c2ccc(C#N)c(S(C)(=O)=O)c2)CCN1C[C@H]1CC[C@@H](C(F)(F)F)CC1 [Cpd No 50-1, 4-((S)-3-isopropyl-4-(((1s,4R)-4-(trifluoromethyl)cyclohexyl)methyl)piperazin-1-yl)-2-(methylsulfonyl)benzonitrile] |  |  |  | 181 (100) % | Cell LXRβ efficacy [1, 4]: 88%; EC50 ([2]; read-out: Cell LXRα EC50): 181 nM; Ki (LXR α LBD protein): 107 nM
10 | CC1(C)CCC(O)(CN2CCN(c3cccc(S(C)(=O)=O)c3)C[C@@H]2c2ccccc2)CC1 [Cpd No 53-1, (S)-4,4-dimethyl-1-((4-(3-(methylsulfonyl)phenyl)-2-phenylpiperazin-1-yl)methyl)cyclohexan-1-ol] | 1030 nM |  |  |  | Cell LXRβ efficacy [1, 4]: 1030 (53) %; Ki (LXR β LBD protein; [5]): 121 nM
11 | CS(=O)(=O)c1cccc(N2CCN(C[C@H]3CC[C@]4(CC3)CC4(F)F)[C@H](c3ccccc3)C2)c1 [48-72, (R)-1-(((3R,6r)-1,1-difluorospiro[2.5]octan-6-yl)methyl)-4-(3-(methylsulfonyl)phenyl)-2-phenylpiperazine] |  |  |  | 7222 (11) % | Cell LXRβ efficacy [1, 4]: 31%; EC50 [1, 6]: 2880 nM; EC50 ([2]; read-out: Cell LXRα EC50): 7220 nM; Ki (LXR β LBD protein; [5]): 825 nM
12 | CC(C)[C@@H]1CN(c2ccc(F)c(S(C)(=O)=O)c2)CCN1c1ncc(C(=O)N(C)C2CN(C(=O)OC(C)(C)C)C2)c(C(F)(F)F)n1 [17-22, tert-butyl (R)-3-(2-(4-(4-fluoro-3-(methylsulfonyl)phenyl)-2-isopropylpiperazin-1-yl)-N-methyl-4-(trifluoromethyl)pyrimidine-5-carboxamido)azetidine-1-carboxylate] | > 20000 nM |  |  |  | EC50 [2]: > 20000 nM; Ki (LXR α LBD protein): 670 nM
13 | Cc1nc(N2CCN(c3cccc(S(C)(=O)=O)c3)C[C@H]2C(C)C)ccc1C(F)(F)F [Cpd No 37-2, (R)-2-isopropyl-1-(6-methyl-5-(trifluoromethyl)pyridin-2-yl)-4-(3-(methylsulfonyl)phenyl)piperazine] | 49 nM |  | 2 nM |  | Cell LXRβ efficacy [1]: 49 (98) %
14 | Cc1nc(N2CCN(c3ccc(F)c(S(C)(=O)=O)c3)C[C@H]2C(C)C)ncc1C(F)(F)F [Cpd No 37-1, (R)-2-(4-(4-fluoro-3-(methylsulfonyl)phenyl)-2-isopropylpiperazin-1-yl)-4-methyl-5-(trifluoromethyl)pyrimidine] | 41 nM |  | 3 nM | 262 (91) % | Cell LXRβ efficacy [1]: 41 (81) %; EC50 ([2]; read-out: Cell LXRα EC50): 262 nM
15 | CS(=O)(=O)c1cccc(N2CCN(C[C@H]3CC[C@H](C(F)(F)F)CC3)[C@@H](c3ccccc3Cl)C2)c1 (single isomer, unassigned) [48-46] |  |  |  | 1908 (35) % | Cell LXRβ efficacy [1, 4]: 35%; EC50 [1, 6]: 910 nM; EC50 ([2]; read-out: Cell LXRα EC50): 1910 nM; Ki (LXR β LBD protein; [5]): 27 nM
16 | CC(C)[C@@H]1CN(c2ccc(F)c(S(C)(=O)=O)c2)CCN1C(=O)OC(C)(C)C(F)(F)F [5-2, 1,1,1-trifluoro-2-methylpropan-2-yl (R)-4-(4-fluoro-3-(methylsulfonyl)phenyl)-2-isopropylpiperazine-1-carboxylate] | 111 nM |  |  | 947 (73) % | EC50 [2]: 947 nM; Ki (LXR α LBD protein): 163 nM
17 | CS(=O)(=O)c1cccc(N2CCN(Cc3ccc(C(F)(F)F)c(Br)c3)C(c3ccccc3)C2)c1 (centres unmarked) [46-37, 1-(3-bromo-4-(trifluoromethyl)benzyl)-4-(3-(methylsulfonyl)phenyl)-2-phenylpiperazine] | 1190 nM | 1194 (55) % | 30 nM | 3451 (52) % | EC50 [2, 3]: 3450 nM
18 | CCOC(=O)c1cnc(N2CCN(c3ccc(F)c(S(C)(=O)=O)c3)C[C@H]2C2CC2)nc1C(F)(F)F [9-4, ethyl (R)-2-(2-cyclopropyl-4-(4-fluoro-3-(methylsulfonyl)phenyl)piperazin-1-yl)-4-(trifluoromethyl)pyrimidine-5-carboxylate] | 318 nM | 318 (27) % | 13 nM | 1415 (37) % | EC50 [2, 3]: 1410 nM
19 | CC(F)(F)[C@H]1CC[C@@H](CN2CCN(c3cccc(S(C)(=O)=O)c3)C[C@@H]2c2ccccc2)CC1 (single isomer, unassigned) [48-28] |  | 12% | 1340 nM |  | EC50 ([1]; agonist mode, read-out: Cell LXRβ EC50): 6480 nM; EC50 ([2]; read-out: Cell LXRα EC50): > 20000 nM
20 | CC(C)[C@@H]1CN(c2ccc(F)c(S(C)(=O)=O)c2)CCN1c1ncc(C#N)c(C(F)(F)F)n1 [7-21, (R)-2-(4-(4-fluoro-3-(methylsulfonyl)phenyl)-2-isopropylpiperazin-1-yl)-4-(trifluoromethyl)pyrimidine-5-carbonitrile] | 152 nM | 152 (65) % | 9 nM | 549 (86) % | EC50 [2, 3]: 549 nM
21 | CC(C)[C@@H]1CN(c2ccc(F)c(S(C)(=O)=O)c2)CCN1C(=O)OC(C)C(F)(F)F (stereo partly drawn) [5-3, 1,1,1-trifluoropropan-2-yl (2R)-4-(4-fluoro-3-(methylsulfonyl)phenyl)-2-isopropylpiperazine-1-carboxylate] | 198 nM |  |  | 1595 (86) % | EC50 [2]: 1590 nM; Ki (LXR α LBD protein): 474 nM
22 | CC(C)[C@@H]1CN(c2ccc(F)c(S(C)(=O)=O)c2)CCN1c1nc2cccnc2s1 [Cpd No 7-57, (R)-2-(4-(4-fluoro-3-(methylsulfonyl)phenyl)-2-isopropylpiperazin-1-yl)thiazolo[5,4-b]pyridine] | 44 nM |  | 12 nM |  | Cell LXRβ efficacy [1]: 44 (90) %
23 | CC(C)[C@@H]1CN(c2ccc(CO)c(S(C)(=O)=O)c2)CCN1c1ccc(C(F)(F)F)nc1 [Cpd No 20-4, (R)-(4-(3-isopropyl-4-(6-(trifluoromethyl)pyridin-3-yl)piperazin-1-yl)-2-(methylsulfonyl)phenyl)methanol] | 28 nM | 28 (105) % | 20 nM |  | 
24 | CC(C)C1CN(c2ccc(C#N)c(S(C)(=O)=O)c2)CCN1CC1CCC(C(F)(F)F)CC1 [50-2, 4-((S)-3-isopropyl-4-(((1r,4S)-4-(trifluoromethyl)cyclohexyl)methyl)piperazin-1-yl)-2-(methylsulfonyl)benzonitrile] |  |  |  | 721 (72) % | Cell LXRβ efficacy [1, 4]: 542 (85) %; EC50 ([2]; read-out: Cell LXRα EC50): 721 nM; Ki (LXR α LBD protein): 358 nM
25 | CC(C)[C@@H]1CN(c2cccc(S(C)(=O)=O)c2)CCN1c1ccc(C(F)F)cn1 [7-34, (R)-1-(5-(difluoromethyl)pyridin-2-yl)-2-isopropyl-4-(3-(methylsulfonyl)phenyl)piperazine] |  |  |  | 13999 (55) % | EC50 [2, 3]: 14000 nM; Ki (LXR α LBD protein): 3280 nM
